Literature values as cited in patent US20190076366A1, “PHARMACEUTICAL COMPOSITION OF ENTECAVIR AND PROCESS OF MANUFACTURING” (Pharmascience, Inc., priority 2012, published 2019).

Experiments:
[1] = 25°±0.5° C.

C=C1C(n2cnc3c(=O)[nH]c(N)nc32)C[C@H](O)[C@H]1CO (stereo partly drawn) [Entecavir, 2-amino-l,9-dihydro-9-[(1S,3R,4S)-4-hydroxy-3-(hydroxymethyl)-2-methylenecyclopentyl]-6H-purin-6-one, monohydrate]
water solubility (in water): 2400 µg/mL | solubility in purified water (purified water): 2400 µg/mL | pH of the saturated solution in water [1]: 7.9
